Measurements: patent US20230263822A1, “MODULATION OF FACTOR 11 EXPRESSION” (Ionis Pharmaceuticals, Inc., priority 2008, published 2023)
Where two headings read alike, the source gives them in different places. e = 2'-O-(2-methoxyethyl) (MOE); d = 2'-deoxy (DNA)

What was measured:
[1] = mouse, in vivo, sc, 50 mg/kg
[2] = mouse, in vivo, sc, 50 mg/kg; remark: listed apart in the source
[3] = mouse, in vivo, sc, 50 mg/kg; remark: listed apart in the source
[4] = rat, in vivo, sc, 50 mg/kg
[5] = rat, in vivo, sc, 50 mg/kg; remark: listed apart in the source
[6] = rat, in vivo, sc, 50 mg/kg; remark: listed apart in the source

Work on “ISIS 445505: 5-8-5 or 6-8-6 MOE microwalk gapmer (Table 44) (antisense CGGCATTGGTGCACAGTTTC; sugars from the 5' end e6 d8 e6, backbone and methylation of C not given here)” yielded an ALT [1] of 116 IU/L, an AST [1] of 153 IU/L and an Albumin [1] of 3.2. The Bilirubin [1] was 0.18 mg/dL, the BUN [2] was 29 mg/dL and the HCT [3] was 49%. For the same substance, the Lymphocyte [3] was 3447, the Neutrophil [3] was 818 and the Platelets [3] was 725. It also gave an RBC [3] of 9.6, a WBC [3] of 5 and a hemoglobin [3] of 14.6 g/dL. It also gave an ALT [4] of 356 IU/L, an AST [4] of 243 IU/L and an Albumin [4] of 3.6. The Bilirubin [4] was 0.15 mg/dL, the BUN [5] was 24 mg/dL and the Creatinine [5] was 0.4 mg/dL. For the same substance, the Urine protein/creatinine ratio [5] was 3.8, the HCT [6] was 50% and the Lymphocyte [6] was 87%. It also gave a Neutrophil [6] of 10%, a Platelets [6] of 1089 nL⁻¹ and an RBC [6] of 9.1 pL⁻¹. The WBC [6] was 21 nL⁻¹, the hemoglobin [6] was 15.0 g/dL and the monocytes [6] was 2.5%.
“ISIS 445509: 5-8-5 or 6-8-6 MOE microwalk gapmer (Table 44) (antisense CGGACGGCATTGGTGCACAG; sugars from the 5' end e6 d8 e6, backbone and methylation of C not given here)” gave an ALT [1] of 80 IU/L, an AST [1] of 117 IU/L and an Albumin [1] of 3.1. It also gave a Bilirubin [1] of 0.17 mg/dL, a BUN [2] of 29 mg/dL and an HCT [3] of 51%. For the same substance, the Lymphocyte [3] was 3758, the Neutrophil [3] was 1104 and the Platelets [3] was 1085. For the same substance, the RBC [3] was 10.2, the WBC [3] was 5 and the hemoglobin [3] was 15.3 g/dL. For the same substance, the ALT [4] was 676 IU/L, the AST [4] was 291 IU/L and the Albumin [4] was 3.5. It also gave a Bilirubin [4] of 0.14 mg/dL, a BUN [5] of 27 mg/dL and a Creatinine [5] of 0.5 mg/dL. It also gave a Urine protein/creatinine ratio [5] of 4.0, an HCT [6] of 47% and a Lymphocyte [6] of 84%. It also gave a Neutrophil [6] of 11%, a Platelets [6] of 1115 nL⁻¹ and an RBC [6] of 8.4 pL⁻¹. The WBC [6] was 17 nL⁻¹, the hemoglobin [6] was 14.1 g/dL and the monocytes [6] was 3.8%.
In the case of “ISIS 445513: 5-8-5 or 6-8-6 MOE microwalk gapmer (Table 44) (antisense GCAGCGGACGGCATTGGTGC; sugars from the 5' end e6 d8 e6, backbone and methylation of C not given here)”, the ALT [1] is reported as 37 IU/L, the AST [1] is reported as 84 IU/L and the Albumin [1] is reported as 3.1. It also gave a Bilirubin [1] of 0.22 mg/dL, a BUN [2] of 27 mg/dL and a Lymphocyte [3] of 5523. It also gave a Neutrophil [3] of 959, a Platelets [3] of 942 and an ALT [4] of 214 IU/L. The AST [4] was 91 IU/L, the Albumin [4] was 3.5 and the Bilirubin [4] was 0.15 mg/dL. It also gave a BUN [5] of 24 mg/dL, a Creatinine [5] of 0.4 mg/dL and a Urine protein/creatinine ratio [5] of 4.6. For the same substance, the HCT [6] was 44%, the Lymphocyte [6] was 82% and the Neutrophil [6] was 14%. It also gave a Platelets [6] of 1051 nL⁻¹, an RBC [6] of 7.8 pL⁻¹ and a WBC [6] of 17 nL⁻¹. For the same substance, the hemoglobin [6] was 13.0 g/dL and the monocytes [6] was 3.5%.
“ISIS 445530: 5-8-5 or 6-8-6 MOE microwalk gapmer (Table 44) (antisense GCATTGGTGCACAGTTTC; sugars from the 5' end e5 d8 e5, backbone and methylation of C not given here)” gave an ALT [1] of 104 IU/L, an AST [1] of 136 IU/L and an Albumin [1] of 3.2. For the same substance, the Bilirubin [1] was 0.18 mg/dL, the BUN [2] was 26 mg/dL and the HCT [3] was 50%. It also gave a Lymphocyte [3] of 5488, a Neutrophil [3] of 930 and a Platelets [3] of 849. The RBC [3] was 10.0, the WBC [3] was 7 and the hemoglobin [3] was 15.1 g/dL. For the same substance, the ALT [4] was 116 IU/L, the AST [4] was 56 IU/L and the Albumin [4] was 3.7. For the same substance, the Bilirubin [4] was 0.11 mg/dL, the BUN [5] was 22 mg/dL and the Creatinine [5] was 0.4 mg/dL. The Urine protein/creatinine ratio [5] was 4.2, the HCT [6] was 50% and the Lymphocyte [6] was 87%. It also gave a Neutrophil [6] of 11%, a Platelets [6] of 1249 nL⁻¹ and an RBC [6] of 8.9 pL⁻¹. It also gave a WBC [6] of 12 nL⁻¹, a hemoglobin [6] of 14.7 g/dL and a monocytes [6] of 2.0%.
